Consider 11 molecules from patent US10538498B2, “1,3,4-oxadiazole sulfonamide derivative compounds as histone deacetylase 6 inhibitor, and the pharmaceutical composition comprising the same” (Chong Kun Dang Pharmaceutical Corp., priority 2015, dated 2020).

Each structure is given as a SMILES string. pIC50: −log10 of the molar value.

The target of this test is T1, human recombinant HDAC6 (Homo sapiens, UniProt Q9UBN7).
T1 construct: purchased Calbiochem 382180
T1 sequence (Q9UBN7 1-1215): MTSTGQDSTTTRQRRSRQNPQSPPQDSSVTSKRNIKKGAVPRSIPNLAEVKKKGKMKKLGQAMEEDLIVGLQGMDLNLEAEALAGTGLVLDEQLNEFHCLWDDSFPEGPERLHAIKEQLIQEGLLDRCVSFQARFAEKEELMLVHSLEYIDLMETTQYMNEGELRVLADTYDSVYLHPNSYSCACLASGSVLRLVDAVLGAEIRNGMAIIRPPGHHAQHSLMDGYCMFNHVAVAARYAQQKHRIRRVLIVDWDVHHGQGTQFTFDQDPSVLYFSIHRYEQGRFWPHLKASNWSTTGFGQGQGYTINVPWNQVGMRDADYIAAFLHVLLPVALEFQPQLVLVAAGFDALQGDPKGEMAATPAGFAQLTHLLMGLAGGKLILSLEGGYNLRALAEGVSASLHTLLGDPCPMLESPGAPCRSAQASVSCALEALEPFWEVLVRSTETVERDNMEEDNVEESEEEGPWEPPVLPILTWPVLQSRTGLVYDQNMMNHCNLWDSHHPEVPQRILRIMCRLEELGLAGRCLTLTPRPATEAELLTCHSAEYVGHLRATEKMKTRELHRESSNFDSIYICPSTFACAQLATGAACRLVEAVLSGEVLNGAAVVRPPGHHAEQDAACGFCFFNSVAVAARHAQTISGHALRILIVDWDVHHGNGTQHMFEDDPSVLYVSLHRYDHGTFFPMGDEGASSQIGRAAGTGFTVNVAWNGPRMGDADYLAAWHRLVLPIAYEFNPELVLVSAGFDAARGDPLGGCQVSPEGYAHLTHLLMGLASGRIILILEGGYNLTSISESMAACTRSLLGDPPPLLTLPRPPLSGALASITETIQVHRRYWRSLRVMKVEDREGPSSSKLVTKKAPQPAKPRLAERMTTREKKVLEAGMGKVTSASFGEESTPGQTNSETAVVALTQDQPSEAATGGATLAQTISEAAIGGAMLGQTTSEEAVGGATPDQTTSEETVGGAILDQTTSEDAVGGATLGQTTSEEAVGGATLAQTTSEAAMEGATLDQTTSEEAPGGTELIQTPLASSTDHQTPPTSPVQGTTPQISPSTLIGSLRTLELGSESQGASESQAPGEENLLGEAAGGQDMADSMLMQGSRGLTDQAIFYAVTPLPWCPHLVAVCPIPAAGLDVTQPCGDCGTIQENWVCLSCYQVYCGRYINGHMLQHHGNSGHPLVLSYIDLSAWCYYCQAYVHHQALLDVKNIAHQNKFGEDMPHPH
Briefly: HDAC6 enzyme activity inhibition assay (HDAC Fluorimetric Drug Discovery Kit). The note with it: for HDAC6 selectivity (fold): HDAC1 vs HDAC6; for pIC50: same protocol as the HDAC1 enzyme activity test. In kind it is biochemical. An outline of the steps:
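Recombinant enzyme (0.3 μg) was incubated with 5-fold serially diluted compound and 10 μM Fluor de Lys-SIRT1 substrate for 60 min at 30° C. Developer II was then added for 30 min, fluorescence read at Ex 360/Em 460, and IC50 values were calculated.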

By pIC50 is commonly meant the IC50 on a negative log10 scale, so that one unit is a factor of ten. Regarding `COc1cc(-c2nnc(C(F)(F)F)o2)ccc1CN(c1cccnc1)S(C)(=O)=O` [Compound 11129, N-(2-methoxy-4-(5-(trifluoromethyl)-1,3,4-oxadiazol-2-yl)benzyl)-N-(pyridin-3-yl)methanesulfonamide], the “HDAC6 selectivity (fold)” value worked out at 48 fold and the pIC50 is 5.68.

As for `CCC(=O)N1CC(N2CCC(S(=O)(=O)N(Cc3ccc(-c4nnc(C(F)F)o4)cc3)c3cccc(Cl)c3)CC2)C1` [Compound 11780, N-(3-chlorophenyl)-N-(4-(5-(difluoromethyl)-1,3,4-oxadiazol-2-yl)benzyl)-1-(1-propionylazetidin-3-yl)piperidine-4-sulfonamide], the “HDAC6 selectivity (fold)” value turned out to be 1893 fold and the pIC50 is 7.28.

As to `CS(=O)(=O)N(Cc1ccc(-c2nnc(C(F)F)o2)cc1)c1nccs1` [Compound 11739, N-(4-(5-(difluoromethyl)-1,3,4-oxadiazol-2-yl)benzyl)-N-(thiazol-2-yl)methanesulfonamide], the “HDAC6 selectivity (fold)” value is 148 fold and the pIC50 was 6.17.

In the case of `Cc1cccc(N(Cc2ccc(-c3nnc(C(F)F)o3)cc2)S(=O)(=O)C2CCN(C3CCOCC3)CC2)c1` [Compound 11699, N-(4-(5-(difluoromethyl)-1,3,4-oxadiazol-2-yl)benzyl)-1-(tetrahydro-2H-pyran-4-yl)-N-(m-tolyl)piperidine-4-sulfonamide], the “HDAC6 selectivity (fold)” value is on record as 776 fold and the pIC50 was 6.89.

`Cc1cccc(N(Cc2ccc(-c3nnc(C(F)F)o3)cn2)S(=O)(=O)C2CCN(C3CN(C(C)C)C3)CC2)c1` [Compound 11837, N-((5-(5-(difluoromethyl)-1,3,4-oxadiazol-2-yl)pyridin-2-yl)methyl)-1-(1-isopropylazetidin-3-yl)-N-(m-tolyl)piperidine-4-sulfonamide]: the “HDAC6 selectivity (fold)” value came out at 4167 fold and the pIC50 is 7.62.

For the molecule `CCCCN(Cc1ccc(-c2nnc(C(F)(F)F)o2)cc1)S(C)(=O)=O` [Compound 11222, N-butyl-N-(4-(5-(trifluoromethyl)-1,3,4-oxadiazol-2-yl)benzyl)methanesulfonamide], the “HDAC6 selectivity (fold)” value is given as 243 fold and the pIC50 was 6.39.

Turning to `CS(=O)(=O)N(Cc1ccc(-c2nnc(C(F)F)o2)cc1)c1ccc(Br)cn1` [Compound 11347, N-(5-bromopyridin-2-yl)-N-(4-(5-(difluoromethyl)-1,3,4-oxadiazol-2-yl)benzyl)methanesulfonamide], the “HDAC6 selectivity (fold)” value is given as 971 fold and the pIC50 was 6.99.

As for `CCN1CCN(CCS(=O)(=O)N(Cc2ccc(-c3nnc(C(F)F)o3)cc2)c2ccccc2)CC1` [Compound 11757, N-(4-(5-(difluoromethyl)-1,3,4-oxadiazol-2-yl)benzyl)-2-(4-ethylpiperazin-1-yl)-N-phenylethane-1-sulfonamide], the “HDAC6 selectivity (fold)” value is on record as 1447 fold and the pIC50 was 7.16.

For the molecule `O=S(=O)(C1CCOCC1)N(Cc1ccc(-c2nnc(C(F)F)o2)cn1)c1ccccc1` [Compound 11390, N-((5-(5-(difluoromethyl)-1,3,4-oxadiazol-2-yl)pyridin-2-yl)methyl)-N-phenyltetrahydro-2H-pyran-4-sulfonamide], the “HDAC6 selectivity (fold)” value is on record as 7692 fold and the pIC50 was 7.89.

As for `O=S(=O)(CCN1CC[C@H](F)C1)N(Cc1ccc(-c2nnc(C(F)F)o2)cc1)c1ccccc1` [Compound 11795, (S)—N-(4-(5-(difluoromethyl)-1,3,4-oxadiazol-2-yl)benzyl)-2-(3-fluoropyrrolidin-1-yl)-N-phenylethane-1-sulfonamide], the “HDAC6 selectivity (fold)” value is 1466 fold and the pIC50 is 7.17.

For `CS(=O)(=O)N(Cc1ccc(-c2nnc(C(F)F)o2)cn1)c1cccnc1` [Compound 11353, N-((5-(5-(difluoromethyl)-1,3,4-oxadiazol-2-yl)pyridin-2-yl)methyl)-N-(pyridin-3-yl)methanesulfonamide], the “HDAC6 selectivity (fold)” value amounted to 3846 fold and the pIC50 was 7.59.
